Test results taken from ChEMBL document CHEMBL1201862, “PubChem BioAssay data set” (2004).
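Grown in 96-well plates, cells were treated for 48 hours with each compound at five concentrations. Insufficient inhibition: endpoint recorded as highest concentration tested. At the GI50, growth is halved.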 Activity calls are given as the source filed them. No stated cut-off is given here; in the data, active = GI50 up to about 1.1 µM and inactive = higher.

Assays:
Assay in all cases: DTP human tumour cell line panel, 48 h
SW-620 = tested on: SW-620
LOX IMVI = tested on: LOX IMVI
K562 = tested on: K562
COLO 205 = tested on: COLO 205
KM12 = tested on: KM12
NCI-H460 = tested on: NCI-H460
SK-MEL-2 = tested on: SK-MEL-2
TK-10 = tested on: TK-10
SNB-19 = tested on: SNB-19
CAKI-1 = tested on: CAKI-1
M14 = tested on: M14
SF-539 = tested on: SF-539
CCRF-CEM = tested on: CCRF-CEM
UACC-62 = tested on: UACC-62
SK-MEL-5 = tested on: SK-MEL-5
IGROV-1 = tested on: IGROV-1
DMS-114 = tested on: DMS-114
U-251 = tested on: U-251
OVCAR-4 = tested on: OVCAR-4

Measured: GI50

Cc1ccc(N2C(=O)C3C=CC(n4[nH]c(=O)n(Cc5ccccc5)c4=O)CC3C2=O)cc1 (configuration not stated)
inactive: SW-620 > 100 µM | LOX IMVI > 100 µM | K562 > 100 µM | COLO 205 > 100 µM | KM12 > 100 µM | NCI-H460 > 100 µM | SK-MEL-2 > 100 µM | TK-10 > 100 µM | SNB-19 > 100 µM | CAKI-1 > 100 µM | M14 > 100 µM | SF-539 > 100 µM | CCRF-CEM > 100 µM | UACC-62 > 100 µM | SK-MEL-5 > 100 µM | IGROV-1 > 100 µM | DMS-114 > 100 µM | U-251 > 100 µM

C(CCC[Te][Te]CCCCCCOC1CCCCO1)CCOC1CCCCO1 (configuration not stated)
inactive: SW-620 18.2 µM | LOX IMVI 13.6 µM | K562 5.86 µM | COLO 205 15.7 µM | KM12 13.7 µM | NCI-H460 14.8 µM | SK-MEL-2 13.3 µM | TK-10 30.1 µM | SNB-19 14.4 µM | CAKI-1 12.6 µM | M14 21.1 µM | SF-539 17.3 µM | CCRF-CEM 11 µM | UACC-62 10.6 µM | IGROV-1 16.5 µM | DMS-114 3.89 µM | U-251 11.8 µM

CCN(CC)C(c1ccc(N(C)C)cc1)C(c1ccc(N(C)C)cc1)N(CC)CC (configuration not stated)
inactive: SW-620 21.4 µM | K562 15.8 µM | OVCAR-4 12.9 µM | COLO 205 43.3 µM | KM12 22.9 µM | NCI-H460 69.2 µM | SK-MEL-2 22.8 µM | TK-10 > 72.9 µM | SNB-19 62.8 µM | CAKI-1 25.9 µM | M14 33.3 µM | SF-539 36.5 µM | CCRF-CEM 26 µM | UACC-62 20.1 µM | SK-MEL-5 16.8 µM | IGROV-1 47.6 µM | DMS-114 14.5 µM | U-251 > 72.9 µM

Clc1ccc2c(Cl)ncnc2c1I
inactive: SW-620 80 µM | LOX IMVI > 100 µM | K562 30.5 µM | OVCAR-4 > 100 µM | COLO 205 > 100 µM | KM12 > 100 µM | NCI-H460 > 100 µM | SK-MEL-2 > 100 µM | TK-10 > 100 µM | SNB-19 > 100 µM | CAKI-1 64 µM | M14 49.8 µM | CCRF-CEM > 10 µM | UACC-62 63.7 µM | SK-MEL-5 > 100 µM | IGROV-1 52.5 µM | DMS-114 54.3 µM | U-251 > 100 µM

CCN(CC)CCOc1ccc(CCc2cc(OC)c(OC)c(OC)c2)cc1
inactive: SW-620 18.4 µM | LOX IMVI 13.9 µM | K562 27.8 µM | OVCAR-4 55.3 µM | COLO 205 17.3 µM | KM12 35.3 µM | NCI-H460 38.5 µM | TK-10 30.5 µM | SNB-19 > 100 µM | CAKI-1 53.2 µM | M14 17.5 µM | SF-539 81.7 µM | CCRF-CEM 64.1 µM | UACC-62 26.1 µM | SK-MEL-5 15.6 µM | IGROV-1 > 100 µM | DMS-114 21.9 µM | U-251 45.3 µM

CCCN(CCC)c1c([N+](=O)[O-])cc(S(N)(=O)=O)cc1[N+](=O)[O-] [ORYZALIN]
inactive: SW-620 20.7 µM | LOX IMVI 17.5 µM | K562 13.5 µM | OVCAR-4 14 µM | COLO 205 21.8 µM | KM12 17.8 µM | NCI-H460 14.6 µM | SK-MEL-2 16.4 µM | SNB-19 19.7 µM | CAKI-1 13.6 µM | M14 16.9 µM | SF-539 19.7 µM | CCRF-CEM 16.8 µM | UACC-62 18.3 µM | SK-MEL-5 19.3 µM | IGROV-1 7.29 µM | DMS-114 19 µM | U-251 12 µM
